Measurements taken from article PMC3626250, “Effects of Borneol on Pharmacokinetics and Tissue Distribution of Notoginsenoside R1 and Ginsenosides Rg1 and Re in Panax notoginseng in Rabbits” (Journal of Analytical Methods in Chemistry, 2013).

Assay: Stability in plasma samples and tissue homogenates of rabbits
Format: physicochemical
Protocol: The precision of the assay was determined for the quality control (QC) plasma and tissue […] Intraday precision and accuracy were determined via repeated analysis of the QC plasma and tissue samples within one day (n = 5). Interday precision and accuracy were determined via repeated analysis on five consecutive days. The concentration of each sample was determined using the prepared calibration curve and analyzed on the same day. All stabilities were evaluated at different concentration levels. Short-term stability of NGR1, GRg1, and GRe were assessed by analyzing QC samples kept at 4°C for 4–24 h. Freeze-thaw stability was evaluated at three consecutive freeze-thaw cycles. Long-term stability was studied by analyzing samples during a period of 8 weeks of storage at −70°C.
The stability studies were performed by evaluating small variations in three different conditions.

With `CC(C)=CCC[C@](C)(O[C@@H]1O[C@H](CO)[C@@H](O)[C@H](O)[C@H]1O)[C@H]1CC[C@]2(C)[C@@H]1[C@H](O)C[C@@H]1[C@@]3(C)CC[C@H](O)C(C)(C)[C@@H]3[C@@H](O[C@@H]3O[C@H](CO)[C@@H](O)[C@H](O)[C@H]3O[C@@H]3OC[C@@H](O)[C@H](O)[C@H]3O)C[C@]12C` [NGR1, notoginsenoside R1] the “Remaining, Short-term stability” value (brain homogenate, QC 5.0 μg·mL^−1, 4°C for 4–24 h) was 98.4 ± 4.4%, the “Remaining, Long-term stability” value (brain homogenate, QC 5.0 μg·mL^−1, 8 weeks at −70°C) was 90.0 ± 9.5% and the “Remaining, Freeze-thaw stability” value (brain homogenate, QC 5.0 μg·mL^−1, three freeze-thaw cycles) was 92.2 ± 8.5%. For the same compound, the “Remaining, Short-term stability” value (brain homogenate, QC 50.0 μg·mL^−1, 4°C for 4–24 h) was 103.5 ± 9.2%, the “Remaining, Long-term stability” value (brain homogenate, QC 50.0 μg·mL^−1, 8 weeks at −70°C) was 99.0 ± 5.3% and the “Remaining, Freeze-thaw stability” value (brain homogenate, QC 50.0 μg·mL^−1, three freeze-thaw cycles) was 95.2 ± 11.4%. The “Remaining, Short-term stability” value (heart homogenate, QC 0.5 μg·mL^−1, 4°C for 4–24 h) was 98.2 ± 6.7%, the “Remaining, Long-term stability” value (heart homogenate, QC 0.5 μg·mL^−1, 8 weeks at −70°C) was 103.6 ± 6.5% and the “Remaining, Freeze-thaw stability” value (heart homogenate, QC 0.5 μg·mL^−1, three freeze-thaw cycles) was 92.8 ± 6.8%. The “Remaining, Short-term stability” value (heart homogenate, QC 5.0 μg·mL^−1, 4°C for 4–24 h) was 94.8 ± 9.5%, the “Remaining, Long-term stability” value (heart homogenate, QC 5.0 μg·mL^−1, 8 weeks at −70°C) was 92.9 ± 4.2% and the “Remaining, Freeze-thaw stability” value (heart homogenate, QC 5.0 μg·mL^−1, three freeze-thaw cycles) was 102.5 ± 10.6%. The “Remaining, Short-term stability” value (heart homogenate, QC 50.0 μg·mL^−1, 4°C for 4–24 h) was 100.3 ± 7.5%, the “Remaining, Long-term stability” value (heart homogenate, QC 50.0 μg·mL^−1, 8 weeks at −70°C) was 96.6 ± 6.7% and the “Remaining, Freeze-thaw stability” value (heart homogenate, QC 50.0 μg·mL^−1, three freeze-thaw cycles) was 96.7 ± 8.7%. For the same compound, the “Remaining, Short-term stability” value (kidney homogenate, QC 0.5 μg·mL^−1, 4°C for 4–24 h) was 92.4 ± 4.3%, the “Remaining, Long-term stability” value (kidney homogenate, QC 0.5 μg·mL^−1, 8 weeks at −70°C) was 91.1 ± 5.4% and the “Remaining, Freeze-thaw stability” value (kidney homogenate, QC 0.5 μg·mL^−1, three freeze-thaw cycles) was 92.2 ± 7.5%. For the same compound, the “Remaining, Short-term stability” value (kidney homogenate, QC 5.0 μg·mL^−1, 4°C for 4–24 h) was 95.8 ± 5.6%, the “Remaining, Long-term stability” value (kidney homogenate, QC 5.0 μg·mL^−1, 8 weeks at −70°C) was 94.3 ± 2.8% and the “Remaining, Freeze-thaw stability” value (kidney homogenate, QC 5.0 μg·mL^−1, three freeze-thaw cycles) was 95.4 ± 8.9%. For the same compound, the “Remaining, Short-term stability” value (kidney homogenate, QC 50.0 μg·mL^−1, 4°C for 4–24 h) was 90.8 ± 3.7%, the “Remaining, Long-term stability” value (kidney homogenate, QC 50.0 μg·mL^−1, 8 weeks at −70°C) was 96.8 ± 9.5% and the “Remaining, Freeze-thaw stability” value (kidney homogenate, QC 50.0 μg·mL^−1, three freeze-thaw cycles) was 80.9 ± 6.7%. The “Remaining, Short-term stability” value (liver homogenate, QC 0.5 μg·mL^−1, 4°C for 4–24 h) was 95.1 ± 3.1%, the “Remaining, Long-term stability” value (liver homogenate, QC 0.5 μg·mL^−1, 8 weeks at −70°C) was 92.6 ± 9.1% and the “Remaining, Freeze-thaw stability” value (liver homogenate, QC 0.5 μg·mL^−1, three freeze-thaw cycles) was 98.9 ± 7.9%. The “Remaining, Short-term stability” value (liver homogenate, QC 5.0 μg·mL^−1, 4°C for 4–24 h) was 94.3 ± 6.7%, the “Remaining, Long-term stability” value (liver homogenate, QC 5.0 μg·mL^−1, 8 weeks at −70°C) was 96.6 ± 6.4% and the “Remaining, Freeze-thaw stability” value (liver homogenate, QC 5.0 μg·mL^−1, three freeze-thaw cycles) was 103.8 ± 8.2%. The “Remaining, Short-term stability” value (liver homogenate, QC 50.0 μg·mL^−1, 4°C for 4–24 h) was 95.4 ± 8.6%, the “Remaining, Long-term stability” value (liver homogenate, QC 50.0 μg·mL^−1, 8 weeks at −70°C) was 100.9 ± 5.6% and the “Remaining, Freeze-thaw stability” value (liver homogenate, QC 50.0 μg·mL^−1, three freeze-thaw cycles) was 99.0 ± 5.0%. The “Remaining, Short-term stability” value (lung homogenate, QC 0.5 μg·mL^−1, 4°C for 4–24 h) was 91.2 ± 5.4%, the “Remaining, Long-term stability” value (lung homogenate, QC 0.5 μg·mL^−1, 8 weeks at −70°C) was 97.6 ± 6.8% and the “Remaining, Freeze-thaw stability” value (lung homogenate, QC 0.5 μg·mL^−1, three freeze-thaw cycles) was 95.8 ± 9.8%. The “Remaining, Short-term stability” value (lung homogenate, QC 5.0 μg·mL^−1, 4°C for 4–24 h) was 96.8 ± 8.3%, the “Remaining, Long-term stability” value (lung homogenate, QC 5.0 μg·mL^−1, 8 weeks at −70°C) was 89.8 ± 4.6% and the “Remaining, Freeze-thaw stability” value (lung homogenate, QC 5.0 μg·mL^−1, three freeze-thaw cycles) was 91.9 ± 9.3%. For the same compound, the “Remaining, Short-term stability” value (lung homogenate, QC 50.0 μg·mL^−1, 4°C for 4–24 h) was 95.6 ± 5.9%, the “Remaining, Long-term stability” value (lung homogenate, QC 50.0 μg·mL^−1, 8 weeks at −70°C) was 91.6 ± 9.8% and the “Remaining, Freeze-thaw stability” value (lung homogenate, QC 50.0 μg·mL^−1, three freeze-thaw cycles) was 96.9 ± 7.5%. The “Remaining, Short-term stability” value (plasma, QC 0.5 μg·mL^−1, 4°C for 4–24 h) was 98.0 ± 6.2%, the “Remaining, Long-term stability” value (plasma, QC 0.5 μg·mL^−1, 8 weeks at −70°C) was 100.0 ± 8.7% and the “Remaining, Freeze-thaw stability” value (plasma, QC 0.5 μg·mL^−1, three freeze-thaw cycles) was 90.4 ± 5.9%. The “Remaining, Short-term stability” value (plasma, QC 5.0 μg·mL^−1, 4°C for 4–24 h) was 96.0 ± 8.4%, the “Remaining, Long-term stability” value (plasma, QC 5.0 μg·mL^−1, 8 weeks at −70°C) was 94.0 ± 6.8% and the “Remaining, Freeze-thaw stability” value (plasma, QC 5.0 μg·mL^−1, three freeze-thaw cycles) was 92.8 ± 6.4%. The “Remaining, Short-term stability” value (plasma, QC 35.0 μg·mL^−1, 4°C for 4–24 h) was 99.8 ± 3.3%, the “Remaining, Long-term stability” value (plasma, QC 35.0 μg·mL^−1, 8 weeks at −70°C) was 97.0 ± 5.3% and the “Remaining, Freeze-thaw stability” value (plasma, QC 35.0 μg·mL^−1, three freeze-thaw cycles) was 96.6 ± 5.5%.
